In US4885275A, “Vancomycin-HCL solutions and the lyophilization thereof” (Eli Lilly and Company, priority 1987, dated 1989):
Structures can show the parent of a compound that is named as a salt.

Key:
[1] = Gel inhibition in concentrated aqueous vancomycin.HCl solutions; assay type: physicochemical; parameters: key: G = gel formation; NG = No gel formation; settings: test compound 10% v/v in aqueous vancomycin.HCl 20% w/v, pH about 3.2, Waring blender high speed 3 minutes
Description: The experiments were carried out to determine the effect on gel formation in aqueous solutions of vancomycin HCl at a concentration of 20% w/v. The solutions were prepared as follows. An aqueous vehicle containing the test compound in an amount sufficient to provide 10% v/v in the final solution was prepared with water. Vancomycin-free base was added to the aqueous vehicle in an amount sufficient to provide a 20% w/v concentration in the final solution. The slurry of base in the aqueous vehicle was treated with 20% hydrochloric acid to form vancomycin.HCl salt and to adjust the pH to about 3.2. The solution which formed was kept covered to avoid loss of the test compound and water was added to the final volume. The solution was blended in a Waring blender at high speed for 3 minutes and then transferred to clear bottles to observe for gel formation.

[2] = Vancomycin.HCl solubility in gel inhibitory compounds (UV or HPLC assay)
Description: The solubility of vancomycin.HCl in some of the gel inhibitory compounds was determined as follows. A two-gram quantity of chromatographically purified vancomycin hydrochloride was added to 100 ml of each compound under consideration. Fresh compound was used when possible to minimize the water content. […] The mixtures were stirred at a moderate rate for 4 hours, with sample aliquots removed at timepoints of 10 minutes, 2 hours and 4 hours. The mixtures were then allowed to stand overnight. A final aliquot was taken at the 20- to 24-hour timepoint. The sample aliquots were assayed by UV absorption measurements or HPLC with UV detection.
UV absorption at 280 nm was used to measure the concentration of vancomycin in the sample solutions made with the transparent solvents. Each sample was filtered through medium-pore filter paper and diluted with water to provide an absorption less than 1.0 A. The remaining compounds, acetone and ethyl acetate, required solvent removal before the measurement step. After filtration, sample aliquots were dried under nitrogen and reconstituted with an aqueous buffer for assay by HPLC. The propylene glycol sample were also assayed by HPLC after appropriate dilution without a drying step.

[3] = Gel formation of aqueous vancomycin hydrochloride solutions; assay type: physicochemical; settings: particularly when agitated by stirring, shaking or blending
[4] = room temperature; cited from earlier work

Compound: CCC(C)=O [Methyl ethyl ketone]
- Test Result (gel formation) [1]: NG

Compound: CO [Methanol]
- Test Result (gel formation) [1]: G

Compound: CCO [Ethanol]
- Test Result (gel formation) [1]: NG

Compound: CC(C)=O [Acetone]
- Test Result (gel formation) [1]: NG

Compound: CC(C)O [Isopropanol]
- Test Result (gel formation) [1]: NG

Compound: OCC(O)CO [Glycerin]
- Test Result (gel formation) [1]: G

Compound: CN[C@H](CC(C)C)C(=O)N[C@H]1C(=O)N[C@@H](CC(N)=O)C(=O)N[C@H]2C(=O)N[C@H]3C(=O)N[C@H](C(=O)N[C@H](C(=O)O)c4cc(O)cc(O)c4-c4cc3ccc4O)[C@H](O)c3ccc(c(Cl)c3)Oc3cc2cc(c3O[C@@H]2O[C@H](CO)[C@@H](O)[C@H](O)[C@H]2O[C@H]2C[C@](C)(N)[C@H](O)[C@H](C)O2)Oc2ccc(cc2Cl)[C@H]1O [Vancomycin.HCl, vancomycin hydrochloride]
- Solubility ([2]; in acetone, 10 min, HPLC assay): < 0.01 mg/mL
- Solubility ([2]; in acetone, 2 hrs, HPLC assay): < 0.01 mg/mL
- Solubility ([2]; in acetone, 4 hrs, HPLC assay): < 0.01 mg/mL
- Solubility ([2]; in acetone, 20 hrs, HPLC assay): < 0.01 mg/mL
- Solubility ([2]; in ethyl acetate, 10 min, HPLC assay): < 0.01 mg/mL
- Solubility ([2]; in ethyl acetate, 2 hrs, HPLC assay): < 0.01 mg/mL
- Solubility ([2]; in ethyl acetate, 4 hrs, HPLC assay): < 0.01 mg/mL
- Solubility ([2]; in ethyl acetate, 20 hrs, HPLC assay): < 0.01 mg/mL
- concentration at which gel forms in ethyl alcohol ([2]; in ethyl alcohol (non-aqueous)): about 2 mg/ml
- Solubility ([2]; in isopropanol, 10 min, UV assay): 0.04 mg/mL
- Solubility ([2]; in isopropanol, 2 hrs, UV assay): 0.04 mg/mL
- Solubility ([2]; in isopropanol, 4 hrs, UV assay): 0.10 mg/mL
- Solubility ([2]; in isopropanol, 20 hrs, UV assay): 0.07 mg/mL
- Solubility ([2]; in methanol, 10 min, UV assay): 5.3 mg/mL
- Solubility ([2]; in methanol, 2 hrs, UV assay): 3.7 mg/mL
- Solubility ([2]; in methanol, 4 hrs, UV assay): 3.1 mg/mL
- Solubility ([2]; in methanol, 20 hrs, UV assay): 2.4 mg/mL
- Solubility ([2]; in propylene glycol, 10 min, HPLC assay): 3.0 mg/mL
- concentration in water above which solutions form gels [3]: above 12 % w/v
- solubility in water [4]: about 200 mg/ml

Compound: CC(O)CO (centres unmarked) [Propylene glycol]
- Test Result (gel formation) [1]: NG

Compound: CC(=O)OC(C)C [Isopropyl acetate]
- Test Result (gel formation) [1]: NG

Compound: CCOC(C)=O [Ethyl acetate]
- Test Result (gel formation) [1]: G
